Laboratory results reported in ChEMBL document CHEMBL5532639, “Heterocyclic pyrimidine derivatives as promising antibacterial agents” (Eur J Med Chem, 2023).
Converted amounts (≈) assume the structure as drawn.

Columns and labels:
Format in all cases: functional
[1] = tested on: Staphylococcus epidermidis; assay: Antibacterial activity against Staphylococcus epidermidis assessed as reduction in microbial growth
[2] = tested on: Streptococcus pyogenes; assay: Antibacterial activity against Streptococcus pyogenes assessed as reduction in microbial growth incubated for 24 hrs by broth micro-dilution method
[3] = tested on: Bacillus subtilis; assay: Antibacterial activity against Bacillus subtilis assessed as reduction in bacterial cell viability by well plate method
[4] = tested on: Escherichia coli; assay: Antibacterial activity Escherichia coli assessed as reduction in bacterial growth
[5] = tested on: Pseudomonas aeruginosa; assay: Antibacterial activity against Pseudomonas aeruginosa assessed as reduction in microbial growth after 18 hrs by MTT based broth dilution method
[6] = tested on: Streptococcus pyogenes; assay: Antibacterial activity against Streptococcus pyogenes assessed as inhibition of microbial growth by broth micro-dilution method
[7] = tested on: Escherichia coli; assay: Antibacterial activity against Escherichia coli assessed as reduction in bacterial growth incubated for 16 to 20 hrs by Mueller-Hinton broth based two-fold serial dilution method; conditions: time 16-20 hrs
[8] = tested on: Escherichia coli; assay: Antibacterial activity against Escherichia coli assessed as reduction in bacterial growth by broth microdilution method
[9] = tested on: Pseudomonas aeruginosa; assay: Antibacterial activity against Pseudomonas aeruginosa assessed as inhibition of microbial growth by broth micro-dilution method
[10] = tested on: Staphylococcus aureus; assay: Antibacterial activity against Staphylococcus aureus assessed as inhibition of microbial growth by broth micro-dilution method
[11] = tested on: Klebsiella pneumoniae; assay: Antibacterial activity against Klebsiella pneumoniae assessed as reduction in bacterial growth by broth microdilution method
[12] = tested on: Escherichia coli; assay: Antibacterial activity against Escherichia coli assessed as inhibition of microbial growth by broth micro-dilution method
[13] = tested on: Escherichia coli; assay: Antibacterial activity against Escherichia coli assessed as zone of inhibition at 50 microg/ml by cup plate analysis; conditions: read-out: IZ
[14] = tested on: Bacillus pumilus; assay: Antibacterial activity against Bacillus pumilus assessed as zone of inhibition at 50 microg/ml by cup plate analysis; conditions: read-out: IZ
[15] = tested on: Proteus vulgaris; assay: Antibacterial activity against Proteus vulgaris assessed as zone of inhibition at 50 microg/ml by cup plate analysis; conditions: read-out: IZ
[16] = tested on: Bacillus subtilis; assay: Antibacterial activity against Bacillus subtilis assessed as zone of inhibition at 50 microg/ml by cup plate analysis; conditions: read-out: IZ
[17] = tested on: Micrococcus luteus; assay: Antimicrobial activity against Micrococcus luteus assessed as diameter of inhibition zone incubated for 24 hrs by well diffusion assay
[18] = tested on: Bacillus subtilis; assay: Antimicrobial activity against Bacillus subtilis assessed as diameter of inhibition zone incubated for 24 hrs by well diffusion assay
[19] = tested on: Pseudomonas aeruginosa; assay: Antimicrobial activity against Pseudomonas aeruginosa assessed as diameter of inhibition zone incubated for 24 hrs by well diffusion assay

`O=C(O)c1cn(C2CC2)c2cc(N3CCNCC3)c(F)cc2c1=O` [CIPROFLOXACIN] was tested, and the MIC [1] was 22 µg/mL, the MIC [2] was 12.5 µg/mL and the MIC [3] was 24 µg/mL (≈ 72.4 µM). It also gave an MIC [4] of 22 µg/mL (≈ 66.4 µM), an MIC [5] of 22 µg/mL and an MIC [6] of 50 µg/mL. For the same compound, the MIC [7] was 25 µg/mL (≈ 75.4 µM), the MIC [8] was 25 µg/mL (≈ 75.4 µM) and the MIC [9] was 200 µg/mL. It also gave an MIC [10] of 50 µg/mL, an MIC [11] of 22 µg/mL (≈ 66.4 µM) and an MIC [12] of 25 µg/mL.

Compound `Nc1nc(-c2ccsc2)cc(-c2ccc(Cl)cc2Cl)n1` has a zone of inhibition at 50 µg/mL [13] of 12 mm, a zone of inhibition at 50 µg/mL [14] of 13 mm and a zone of inhibition at 50 µg/mL [15] of 15 mm. The zone of inhibition at 50 µg/mL [16] was 16 mm.

Work on `Nc1nc(-c2ccc(F)cc2)cc(-c2ccsc2)n1` yielded a zone of inhibition at 50 µg/mL [13] of 13 mm, a zone of inhibition at 50 µg/mL [14] of 14 mm and a zone of inhibition at 50 µg/mL [15] of 14 mm. The zone of inhibition at 50 µg/mL [16] was 17 mm.

With `Oc1ncnc(O)c1/N=N/c1ccc(/N=N/c2ccccc2)cc1` the “inhibition zone (IZ)” value [17] was 18 mm, the “inhibition zone (IZ)” value [18] was 13 mm and the “inhibition zone (IZ)” value [19] was 12 mm.
